Reference: paper PMC5581033, “Targeting aldehyde dehydrogenase activity in head and neck squamous cell carcinoma with a novel small molecule inhibitor” (Oncotarget, 2017)

Columns and labels:
Assay in all cases: purified recombinant isozyme activity assay, NADH formation at […] nm with acetaldehyde and NAD+
Type in all cases: biochemical
ALDH3A1 = molecular target: T1, ALDH3A1 (Homo sapiens, UniProt P30838)
T1 sequence (P30838 2-453): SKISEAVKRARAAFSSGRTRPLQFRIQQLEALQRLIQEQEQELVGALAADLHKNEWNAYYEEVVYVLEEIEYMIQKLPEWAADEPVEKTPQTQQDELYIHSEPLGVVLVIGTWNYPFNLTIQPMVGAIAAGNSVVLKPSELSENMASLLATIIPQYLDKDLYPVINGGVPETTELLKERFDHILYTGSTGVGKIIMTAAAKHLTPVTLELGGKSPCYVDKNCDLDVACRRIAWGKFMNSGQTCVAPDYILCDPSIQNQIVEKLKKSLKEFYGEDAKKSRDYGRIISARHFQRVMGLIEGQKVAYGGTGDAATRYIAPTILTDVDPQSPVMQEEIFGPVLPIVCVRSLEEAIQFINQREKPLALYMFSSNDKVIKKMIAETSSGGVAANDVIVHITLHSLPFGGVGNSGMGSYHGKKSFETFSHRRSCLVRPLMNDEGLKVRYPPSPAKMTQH

ALDH2 = molecular target: T2, ALDH2 (Homo sapiens, UniProt P05091)
T2 sequence (P05091 18-517): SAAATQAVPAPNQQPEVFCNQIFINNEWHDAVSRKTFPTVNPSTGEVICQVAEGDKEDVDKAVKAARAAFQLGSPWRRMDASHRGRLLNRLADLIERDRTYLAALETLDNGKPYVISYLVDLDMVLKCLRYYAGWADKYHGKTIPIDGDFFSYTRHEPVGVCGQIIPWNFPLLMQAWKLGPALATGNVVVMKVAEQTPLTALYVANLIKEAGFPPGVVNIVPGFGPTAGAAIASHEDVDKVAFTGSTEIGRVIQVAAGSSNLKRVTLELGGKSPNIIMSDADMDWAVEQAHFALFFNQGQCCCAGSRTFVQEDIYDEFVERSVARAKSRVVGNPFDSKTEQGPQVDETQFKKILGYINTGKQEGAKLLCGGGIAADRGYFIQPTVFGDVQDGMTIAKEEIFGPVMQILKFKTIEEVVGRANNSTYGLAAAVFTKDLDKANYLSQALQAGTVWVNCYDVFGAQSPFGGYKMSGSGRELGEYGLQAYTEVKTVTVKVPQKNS

ALDH1A1 = molecular target: T3, ALDH1A1 (Homo sapiens, UniProt P00352)
T3 sequence (P00352 2-501): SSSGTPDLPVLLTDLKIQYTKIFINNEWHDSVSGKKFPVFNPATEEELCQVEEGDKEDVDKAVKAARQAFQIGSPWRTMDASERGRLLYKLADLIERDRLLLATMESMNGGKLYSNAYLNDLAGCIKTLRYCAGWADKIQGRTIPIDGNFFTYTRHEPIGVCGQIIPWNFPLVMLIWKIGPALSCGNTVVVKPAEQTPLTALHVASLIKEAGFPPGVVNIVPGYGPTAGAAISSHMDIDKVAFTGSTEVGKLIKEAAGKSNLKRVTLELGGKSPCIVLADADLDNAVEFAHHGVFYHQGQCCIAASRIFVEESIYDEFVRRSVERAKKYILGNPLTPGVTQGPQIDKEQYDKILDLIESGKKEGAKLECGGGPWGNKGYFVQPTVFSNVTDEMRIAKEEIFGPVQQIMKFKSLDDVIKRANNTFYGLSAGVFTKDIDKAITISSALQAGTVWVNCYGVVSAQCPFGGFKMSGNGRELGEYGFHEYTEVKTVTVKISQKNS

## CN(C)CCC(=O)c1ccc(Br)cc1 [Aldi-6, 3-(Dimethylamino)-4′-bromopropiophenone]
ALDH3A1
  IC50: 1000 nM
ALDH2
  IC50: 800 nM
ALDH1A1
  IC50: 600 nM
